Data published in patent US11759462B2, “Spirocyclic compounds as tryptophan hydroxylase inhibitors” (priority 2013, dated 2023).

Molecular target: T1, Recombinant human TPH1 (MBP tagged) (Homo sapiens, UniProt P17752)
T1 construct: cloning full length human TPH1 cDNA in to a bacterial pMAL-c5E expression vector; made in house; host or cells: E. coli BL21 (DE3)
T1 sequence (P17752 1-444): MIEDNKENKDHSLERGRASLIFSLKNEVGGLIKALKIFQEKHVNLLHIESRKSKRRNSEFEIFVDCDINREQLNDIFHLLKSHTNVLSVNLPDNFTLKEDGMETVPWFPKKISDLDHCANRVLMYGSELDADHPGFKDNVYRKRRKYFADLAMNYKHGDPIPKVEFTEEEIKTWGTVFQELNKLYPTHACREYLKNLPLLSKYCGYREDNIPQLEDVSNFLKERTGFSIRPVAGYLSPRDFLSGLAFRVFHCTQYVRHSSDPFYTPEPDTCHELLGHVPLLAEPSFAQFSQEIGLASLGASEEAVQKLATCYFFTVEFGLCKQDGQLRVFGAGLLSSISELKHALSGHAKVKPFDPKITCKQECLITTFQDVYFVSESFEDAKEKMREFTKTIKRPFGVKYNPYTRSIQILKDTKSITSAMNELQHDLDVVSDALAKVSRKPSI
Test: TPH1 in vitro inhibition assay (kinetic fluorescence)
Type: biochemical
Details: TPH1 Range (TPH1 inhibition IC50)
Text: Recombinant human TPH1 (rTPH1 GenBank™ accession no. NP_004179) was expressed by cloning full length human TPH1 cDNA in to a bacterial pMAL-c5E expression vector to produce maltose-binding protein (MBP) TPH1 fusion proteins. E. coli BL21 (DE3) containing pMAL-c5E-TPH1 was used for protein generation and the recombinant protein was purified utilizing standard column chromatography techniques. The MBP tagged TPH1 (MBP-TPH1) was used directly to screen compounds as described below. Recombinant human TPH2 (rTPH2 GenBank™ accession no. 173353), PheOH (rPheOH GenBank™ accession no. K03020) and TH (rTH GenBank™ accession no. L20679) with an MBP tag were produced similarly.
TPH1 activities were measured in an assay containing 200 mM ammonium sulfate, 7 mM DTT, 50 μg/mL catalase, 25 μM ammonium iron sulfate, 50 mM MES, pH 7.1. Test compounds were diluted in 100% DMSO and added to the assay plate in 1 μL aliquots at 100× final concentration. Fifty microliters of assay buffer containing 30 nM TPH1 enzyme (MBP tagged) were added to the plate wells containing the test compound by the use of an Eppendorf repeater pipette. The reaction was initiated by the addition of 50 μL of assay buffer containing 60 μM tryptophan and 72 μM 6-6-methyltetra-hydropterin (2× final concentration) by the use of a Multidrop (LabSystems). Final reaction conditions were 15 nM TPH1 enzyme, 30 μM tryptophan, 36 μM 6-methyltetra-hydropterin, 200 mM ammonium sulfate, 7 mM DTT, […], 25 μM ferrous ammonium sulfate, 50 mM MES, pH 7.1, with atmospheric oxygen at room temperature. The plate was immediately placed onto an M5 plate reader (Molecular Devices) for kinetic fluorescence measurement using an excitation setting of 300 nm and an emission setting of 335 nm. Fluorescence reads are recorded in kinetic mode for 300 seconds (5 minutes).
Kinetic assay data for compounds at specific concentrations was translated into slopes using the Softmax Pro software on a Spectramax reader, and compound inhibition slopes were compared with wells containing enzyme, substrate and cofactor in the absence of inhibitor (100%), and wells containing substrate and cofactor in the absence of enzyme (0%). DMSO concentration in the assay was 1%. […] IC50's were determined using Graphpad Prism.

Question: Which IC50 does the source give for `Cc1cccc(-c2cc(Cl)ccc2[C@@H](Oc2cc(N3CCC4(CC3)CN[C@H](C(=O)O)C4)nc(N)n2)C(F)(F)F)n1` [Example 34i, (S)-8-(2-amino-6-((R)-1-(4-chloro-2-(6-methylpyridin-2-yl)phenyl)-2,2,2-trifluoroethoxy)pyrimidin-4-yl)-2,8-diazaspiro[4.5]decane-3-carboxylic acid] here?
Answer: 50 to 300 nM

Question: With `CC(C)(C)c1cccc(-c2cc(Cl)ccc2[C@@H](Oc2cc(N3CCC4(CC3)CN[C@H](C(=O)O)C4)nc(N)n2)C(F)(F)F)c1` [Example 34ao, (S)-8-(2-amino-6-((R)-1-(3′-(tert-butyl)-5-chloro-[1,1′-biphenyl]-2-yl)-2,2,2-trifluoroethoxy)pyrimidin-4-yl)-2,8-diazaspiro[4.5]decane-3-carboxylic acid] as the molecule, how does the IC50 read?
Answer: < 50 nM

Same assay, conditions: read-out: TPH1 Range (TPH1 inhibition IC50)

Question: Which IC50 does the source give for `Cc1ccn(-c2cc(CN(C)C)ccc2[C@@H](Oc2cc(N3CCC4(CC3)CN[C@H](C(=O)O)C4)nc(N)n2)C(F)(F)F)n1` [Example 26, (S)-8-(2-amino-6-((R)-1-(4-((dimethylamino)methyl)-2-(3-methyl-H-pyrazol-1-yl)phenyl)-2,2,2-trifluoroethoxy)pyrimidin-4-yl)-2,8-diazaspiro[4.5]decane-3-carboxylic acid] here?
Answer: 3000 to 10000 nM

Question: How did the IC50 turn out when `Nc1nc(O[C@H](c2ccc(Cl)cc2-c2cc(F)cc(C(F)(F)F)c2)C(F)(F)F)cc(N2CCC3(CC2)CN[C@H](C(=O)O)C3)n1` [Example 34aq, (S)-8-(2-amino-6-((R)-1-(5-chloro-3′-fluoro-5′-(trifluoromethyl)-[1,1′-biphenyl]-2-yl)-2,2,2-trifluoroethoxy)pyrimidin-4-yl)-2,8-diazaspiro[4.5]decane-3-carboxylic acid] was run?
Answer: < 50 nM

Question: `CCN(CC)C(=O)c1cccc(-c2cc(Cl)ccc2[C@@H](Oc2cc(N3CCC4(CC3)CN[C@H](C(=O)O)C4)nc(N)n2)C(F)(F)F)c1` [Example 34co, (S)-8-(2-amino-6-((R)-1-(5-chloro-3′-(diethylcarbamoyl)-[1,1′-biphenyl]-2-yl)-2,2,2-trifluoroethoxy)pyrimidin-4-yl)-2,8-diazaspiro[4.5]decane-3-carboxylic acid] was tested. Which IC50 did it give?
Answer: 50 to 300 nM

Question: `CCOc1cccc(-c2ccc([C@@H](Oc3cc(N4CCC5(CC4)CN[C@H](C(=O)O)C5)nc(N)n3)C(F)(F)F)c(-n3ccc(C)n3)c2)c1` [Example 1ap, (S)-8-(2-amino-6-((R)-1-(3′-ethoxy-3-(3-methyl-1H-pyrazol-1-yl)-[1,1′-biphenyl]-4-yl)-2,2,2-trifluoroethoxy)pyrimidin-4-yl)-2,8-diazaspiro[4.5]decane-3-carboxylic acid] was tested. Which IC50 did it give?
Answer: < 50 nM

Question: Which IC50 does the source give for `Cn1cccc(-c2cc(Cl)ccc2[C@@H](Oc2cc(N3CCC4(CC3)CN[C@H](C(=O)O)C4)nc(N)n2)C(F)(F)F)c1=O` [Example 34cj, (S)-8-(2-amino-6-((R)-1-(4-chloro-2-(1-methyl-2-oxo-1,2-dihydropyridin-3-yl)phenyl)-2,2,2-trifluoroethoxy)pyrimidin-4-yl)-2,8-diazaspiro[4.5]decane-3-carboxylic acid] here?
Answer: 50 to 300 nM

Question: For `Cc1ccn(-c2ccc(-c3ccc(C)c(C)c3)cc2[C@@H](Oc2cc(N3CCC4(CC3)CN[C@H](C(=O)O)C4)nc(N)n2)C(F)(F)F)n1` [Example 19e, (S)-8-(2-amino-6-((R)-1-(3′,4′-dimethyl-4-(3-methyl-1H-pyrazol-1-yl)-[1,1′-biphenyl]-3-yl)-2,2,2-trifluoroethoxy)pyrimidin-4-yl)-2,8-diazaspiro[4.5] decane-3-carboxylic acid], which IC50 is on record?
Answer: < 50 nM

Question: For `Nc1nc(O[C@H](c2ccc(Cl)cc2-n2cnc3ccccc32)C(F)(F)F)cc(N2CCC3(CC2)CN[C@H](C(=O)O)C3)n1` [Example 36b, (S)-8-(6-((R)-1-(2-(1H-benzo[d]imidazol-1-yl)-4-chlorophenyl)-2,2,2-trifluoroethoxy)-2-aminopyrimidin-4-yl)-2,8-diazaspiro[4.5]decane-3-carboxylic acid], which IC50 is on record?
Answer: 50 to 300 nM

Question: How did the IC50 turn out when `CN1C(=O)CCc2cc(-c3ccc([C@@H](Oc4cc(N5CCC6(CC5)CN[C@H](C(=O)O)C6)nc(N)n4)C(F)(F)F)cc3)ccc21` [Example 55aj, (S)-8-(2-amino-6-((R)-2,2,2-trifluoro-1-(4-(1-methyl-2-oxo-1,2,3,4-tetrahydroquinolin-6-yl)phenyl)ethoxy)pyrimidin-4-yl)-2,8-diazaspiro[4.5]decane-3-carboxylic acid] was run?
Answer: 50 to 300 nM

Question: How did the IC50 turn out when `Cc1ccn(-c2cc(-c3ccc(F)c(F)c3)ccc2[C@@H](Oc2cc(N3CCC4(CC3)CN[C@H](C(=O)O)C4)nc(C)n2)C(F)(F)F)n1` [Example 29c, (S)-8-(6-((R)-1-(3′,4′-difluoro-3-(3-methyl-1H-pyrazol-1-yl)-[1,1′-biphenyl]-4-yl)-2,2,2-trifluoroethoxy)-2-methylpyrimidin-4-yl)-2,8-diazaspiro[4.5]decane-3-carboxylic acid] was run?
Answer: 50 to 300 nM

Question: For `Nc1nc(O[C@H](c2ccc(-c3coc4ccccc34)cc2)C(F)(F)F)cc(N2CCC3(CC2)CN[C@H](C(=O)O)C3)n1` [Example 55cz, (S)-8-(2-amino-6-((R)-1-(4-(benzofuran-3-yl)phenyl)-2,2,2-trifluoroethoxy)pyrimidin-4-yl)-2,8-diazaspiro[4.5]decane-3-carboxylic acid], which IC50 is on record?
Answer: 50 to 300 nM

Question: With `Nc1nc(O[C@H](c2ccc(-c3ccccc3C(F)(F)F)cc2)C(F)(F)F)cc(N2CCC3(CC2)CN[C@H](C(=O)O)C3)n1` [Example 55ce, (S)-8-(2-amino-6-((R)-2,2,2-trifluoro-1-(2′-(trifluoromethyl)-[1,1′-biphenyl]-4-yl)ethoxy)pyrimidin-4-yl)-2,8-diazaspiro[4.5]decane-3-carboxylic acid] as the molecule, how does the IC50 read?
Answer: 300 to 3000 nM

Question: `Nc1nc(O[C@H](c2ccc(Cl)cc2-c2cc(F)c(F)c(F)c2)C(F)(F)F)cc(N2CCC3(CC2)CN[C@H](C(=O)O)C3)n1` [Example 34bf, (S)-8-(2-amino-6-((R)-1-(5-chloro-3′,4′,5′-trifluoro-[1,1′-biphenyl]-2-yl)-2,2,2-trifluoroethoxy)pyrimidin-4-yl)-2,8-diazaspiro[4.5]decane-3-carboxylic acid] was tested. Which IC50 did it give?
Answer: 50 to 300 nM

Question: Which IC50 does the source give for `CCCOc1ccc(-c2ccc([C@@H](Oc3cc(N4CCC5(CC4)CN[C@H](C(=O)O)C5)nc(N)n3)C(F)(F)F)c(-c3ccccc3)c2)cc1F` [Example 54e, (S)-8-(2-amino-6-((R)-2,2,2-trifluoro-1-(3-fluoro-4-propoxy-[1,1′:3′,1″-terphenyl]-4′-yl)ethoxy)pyrimidin-4-yl)-2,8-diazaspiro[4.5]decane-3-carboxylic acid] here?
Answer: 50 to 300 nM

Question: How did the IC50 turn out when `Cn1cc(-c2ccc([C@@H](Oc3cc(N4CCC5(CC4)CN[C@H](C(=O)O)C5)nc(N)n3)C(F)(F)F)cc2)ccc1=O` [Example 55af, (S)-8-(2-amino-6-((R)-2,2,2-trifluoro-1-(4-(1-methyl-6-oxo-1,6-dihydropyridin-3-yl)phenyl)ethoxy)pyrimidin-4-yl)-2,8-diazaspiro[4.5]decane-3-carboxylic acid] was run?
Answer: 300 to 3000 nM

Question: Which IC50 does the source give for `Cc1ccn(-c2cc(-c3ccc(F)c(F)c3)ccc2[C@@H](Oc2cc(N3CCC4(CC3)CN[C@H](C(=O)O)C4)nc(N)n2)C(F)(F)F)n1` [Example 1au, (S)-8-(2-amino-6-((R)-1-(3′,4′-difluoro-3-(3-methyl-1H-pyrazol-1-yl)-[1,1′-biphenyl]-4-yl)-2,2,2-trifluoroethoxy)pyrimidin-4-yl)-2,8-diazaspiro[4.5]decane-3-carboxylic acid] here?
Answer: 50 to 300 nM

Question: For `CC(C)c1cccc(-c2ccc([C@@H](Oc3cc(N4CCC5(CC4)CN[C@H](C(=O)O)C5)nc(N)n3)C(F)(F)F)cc2)c1` [Example 55ck, (S)-8-(2-amino-6-((R)-2,2,2-trifluoro-1-(3′-isopropyl-[1,1′-biphenyl]-4-yl)ethoxy)pyrimidin-4-yl)-2,8-diazaspiro[4.5]decane-3-carboxylic acid], which IC50 is on record?
Answer: 300 to 3000 nM
